# The source made the active and inactive calls. The rule behind the calls is not given here.
# Experiments:
# NCI-H358 [1] = assay: Induction of apoptosis in human NCI-H358 cells assessed as early apoptotic cells at 300 nM incubated for 48 hrs by Annexin V-FITC staining based flow cytometry analysis (reference value: 1.60 %); assay type: functional
# NCI-H358 [2] = assay: Antiproliferative activity against human NCI-H358 cells expressing KRAS G12C mutant assessed as reduction of cell growth by measuring fold decrease in IC50 incubated for 72 hrs in presence of SHP099 by CCK-8 assay; assay type: functional
# MIA PaCa-2 [3] = assay: Induction of cell cycle arrest in human MIA PaCa-2 cells assessed as accumulation of cells at G2/M phase incubated for 48 hrs by propidium iodide staining based flow cytometry analysis; assay type: functional; details: dose 30-300 nM
# ASPC1 = assay: Antiproliferative activity against human ASPC1 cells expressing KRAS G12D mutant assessed as inhibition of cell growth incubated for 72 hrs by CCK-8 assay; assay type: functional, cell-based; details: ASPC1, 72 h
# [4] = tested on: von Hippel-Lindau disease tumor suppressor/GTPase KRas (Homo sapiens), P01116+P40337 [G12C]; assay: PROTAC activity at VHL/KRAS G12C mutant in human NCI-H358 cells assessed as inhibition of ERK phosphorylation incubated for 48 hrs by Western blotting analysis; assay type: cell-based; details: dose 10-10000 nM
# [5] = tested on: von Hippel-Lindau disease tumor suppressor/GTPase KRas (Homo sapiens), P01116+P40337 [G12C]; assay: PROTAC activity at VHL/KRAS G12C mutant in human NCI-H358 cells assessed as induction of protein degradation at 100 nM preincubated with AMG510 for 6 hrs followed by compound addition and measured after 48 hrs by Western blotting analysis; assay type: cell-based
# [6] = tested on: von Hippel-Lindau disease tumor suppressor/GTPase KRas (Homo sapiens), P01116+P40337 [G12C]; assay: PROTAC activity at VHL/KRAS G12C mutant in human NCI-H358 cells assessed as induction of protein degradation at 100 nM incubated for 48 hrs by Western blotting analysis relative to control; assay type: cell-based
# [7] = tested on: von Hippel-Lindau disease tumor suppressor/GTPase KRas (Homo sapiens), P01116+P40337 [G12C]; assay: PROTAC activity at VHL/KRAS G12C mutant in human NCI-H358 cells assessed as inhibition of ERK phosphorylation at 100 nM incubated for 1 to 8 days by Western blotting analysis; assay type: cell-based; details: time 1-8 day
# SW837 = assay: Antiproliferative activity against human SW837 cells expressing KRAS G12C mutant assessed as relative cell viability at 30 nM incubated for 72 hrs in presence of naporafenib by CCK-8 assay; assay type: functional; details: read-out: Activity
# NCI-H358 [8] = assay: Antiproliferative activity against human NCI-H358 cells expressing KRAS G12C mutant assessed as relative cell viability at 30 nM incubated for 72 hrs in presence of naporafenib by CCK-8 assay; assay type: functional; details: read-out: Activity
# NCI-H358 [9] = assay: Antiproliferative activity against human NCI-H358 cells expressing KRAS G12C mutant assessed as relative cell viability at 30 nM incubated for 72 hrs in presence of infigratinib by CCK-8 assay; assay type: functional; details: read-out: Activity
# [10] = tested on: von Hippel-Lindau disease tumor suppressor/GTPase KRas (Homo sapiens), P01116+P40337 [G12C]; assay: (§1) PROTAC activity at VHL/KRAS G12C mutant in human MIA PaCa-2 cells assessed as induction of protein degradation by Western blotting analysis; assay type: cell-based
# [11] = biological target: von Hippel-Lindau disease tumor suppressor/GTPase KRas (Homo sapiens, UniProt P01116+P40337, G12C); assay: as §1; assay type: cell-based
# Chain of von Hippel-Lindau disease tumor suppressor/GTPase KRas (P01116 whole entry G12C, stated change not applied): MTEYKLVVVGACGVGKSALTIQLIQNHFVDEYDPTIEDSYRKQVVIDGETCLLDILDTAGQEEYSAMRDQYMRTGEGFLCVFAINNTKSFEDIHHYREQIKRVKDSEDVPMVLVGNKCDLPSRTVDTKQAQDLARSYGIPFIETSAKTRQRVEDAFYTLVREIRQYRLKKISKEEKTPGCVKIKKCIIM
# Chain of von Hippel-Lindau disease tumor suppressor/GTPase KRas (P40337 whole entry, stated change not applied): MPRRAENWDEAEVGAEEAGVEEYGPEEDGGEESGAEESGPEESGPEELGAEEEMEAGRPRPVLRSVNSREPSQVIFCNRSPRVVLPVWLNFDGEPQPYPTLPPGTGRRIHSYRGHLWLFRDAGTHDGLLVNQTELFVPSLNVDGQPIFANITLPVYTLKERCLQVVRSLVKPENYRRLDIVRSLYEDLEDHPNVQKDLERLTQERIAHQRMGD
# [12] = tested on: von Hippel-Lindau disease tumor suppressor/GTPase KRas (Homo sapiens), P01116+P40337 [G12C]; assay: PROTAC activity at VHL/KRAS G12C mutant in human NCI-H358 cells assessed as induction of protein degradation at 100 nM incubated for 48 hrs followed by compound washout by Western blotting analysis; assay type: cell-based
# NCI-H358 [13] = assay: Synergistic antiproliferative activity against human NCI-H358 cells expressing KRAS G12C mutant assessed as combination index at 30 nM incubated for 72 hrs in presence of naporafenib by CCK-8 assay; assay type: functional
# Calu-1 = assay: Antiproliferative activity against human Calu-1 cells expressing KRAS G12C mutant assessed as relative cell viability at 30 nM incubated for 72 hrs by CCK-8 assay; assay type: functional; details: Calu-1, read-out: Activity
# [14] = tested on: von Hippel-Lindau disease tumor suppressor/GTPase KRas (Homo sapiens), P01116+P40337 [G12C]; assay: PROTAC activity at VHL/KRAS G12C mutant in human MIA PaCa-2 cells assessed as induction of protein degradation at 100 nM incubated for 48 hrs followed by compound washout by Western blotting analysis; assay type: cell-based
# NCI-H23 [15] = assay: Antiproliferative activity against human NCI-H23 cells expressing KRAS G12C mutant assessed as relative cell viability at 30 nM incubated for 72 hrs in presence of naporafenib by CCK-8 assay; assay type: functional; details: read-out: Activity
# [16] = tested on: von Hippel-Lindau disease tumor suppressor/GTPase KRas (Homo sapiens), P01116+P40337 [G12C]; assay: PROTAC activity at VHL/KRAS G12C mutant in human MIA PaCa-2 cells assessed as induction of protein degradation at 300 nM incubated for 24 hrs by Western blotting analysis relative to control; assay type: cell-based
# [17] = tested on: von Hippel-Lindau disease tumor suppressor/GTPase KRas (Homo sapiens), P01116+P40337 [G12C]; assay: PROTAC activity at VHL/KRAS G12C mutant in human NCI-H358 cells assessed as inhibition of AKT phosphorylation at 100 nM incubated for 1 to 8 days by Western blotting analysis; assay type: cell-based; details: time 1-8 day
# NCI-H358 [18] = assay: Antiproliferative activity against human NCI-H358 cells expressing KRAS G12C mutant assessed as reduction of cell growth by measuring fold decrease in IC50 incubated for 72 hrs in presence of AZD4573 by CCK-8 assay; assay type: functional
# MIA PaCa-2 [19] = assay: Induction of apoptosis in human MIA PaCa-2 cells assessed as late apoptotic cells at 300 nM incubated for 48 hrs by Annexin V-FITC staining based flow cytometry analysis (reference value: 5.69 %); assay type: functional
# MIA PaCa-2 [20] = assay: Antitumor activity against human MIA PaCa-2 cells xenografted in BALB/c nude mouse assessed as reduction in percentage of CD31-positive cells at 10 to 30 mg/kg, ip administered for 16 days by immunohistochemical staining analysis; assay type: functional, organism-based; details: dose 10-30 mg/kg, time 16.0 day
# [21] = tested on: von Hippel-Lindau disease tumor suppressor/GTPase KRas (Homo sapiens), P01116+P40337 [G12C]; assay: PROTAC activity at VHL/KRAS G12C mutant in human MIA PaCa-2 cells assessed as induction of protein degradation at 100 nM incubated for 48 hrs by Western blotting analysis relative to control; assay type: cell-based
# NCI-H358 [22] = assay: Antiproliferative activity against human NCI-H358 cells expressing KRAS G12C mutant assessed as relative cell viability at 30 nM incubated for 72 hrs in presence of daclolisib by CCK-8 assay; assay type: functional; details: read-out: Activity
# [23] = tested on: von Hippel-Lindau disease tumor suppressor/GTPase KRas (Homo sapiens), P01116+P40337 [G12C]; assay: PROTAC activity at VHL/KRAS G12C mutant in human NCI-H358 cells assessed as induction of protein degradation at 300 nM incubated for 6 hrs by Western blotting analysis relative to control; assay type: cell-based
# NCI-H23 [24] = assay: Antiproliferative activity against human NCI-H23 cells expressing KRAS G12C mutant assessed as relative cell viability at 30 nM incubated for 72 hrs in presence of crizotinib by CCK-8 assay; assay type: functional; details: read-out: Activity
# MIA PaCa-2 [25] = assay: Antiproliferative activity against human MIA PaCa-2 cells expressing KRAS G12C mutant assessed as relative cell viability at 30 nM incubated for 72 hrs in presence of crizotinib by CCK-8 assay; assay type: functional; details: read-out: Activity
# [26] = Cmax in ICR mouse at 30 mg/kg, ip measured after 24 hrs by LC-MS/MS analysis; assay type: ADME, organism-based; details: in vivo
# NCI-H358 [27] = assay: Induction of apoptosis in human NCI-H358 cells assessed as late apoptotic cells at 30 nM incubated for 48 hrs by Annexin V-FITC staining based flow cytometry analysis (reference value: 5.20 %); assay type: functional
# [28] = Toxicity in ICR mouse assessed as side effects at 2 mg/kg, iv measured after 24 hrs; assay type: organism-based; details: in vivo
smiles,measurement,setting,value
C=CC(=O)N1CCN(c2nc(=O)n(-c3c(C)ccnc3C(C)C)c3nc(-c4c(F)cccc4OCC4CCN(CCCC(=O)N[C@H](C(=O)N5C[C@H](O)C[C@H]5C(=O)NCc5ccc(-c6scnc6C)cc5)C(C)(C)C)CC4)c(F)cc23)[C@@H](C)C1,Activity,NCI-H358 [1],4.06%
same,fold change (FC),NCI-H358 [2],~4
same,Activity,MIA PaCa-2 [3],Dose-Dependent Effect
same,IC50,ASPC1,> 10000 nM
same,Activity,[4],Dose-Dependent Effect
same,Activity,[5],inactive
same,Activity,[6],100%
same,Activity,[7],Active
same,viability at 0.03 µM,SW837,0.32%
same,viability at 0.03 µM,NCI-H358 [8],0.36%
same,viability at 0.03 µM,NCI-H358 [9],0.38%
same,Activity,[10],Dose-Dependent Effect
same,DC50,[11],28 nM
same,Activity,[12],Active
same,CI,NCI-H358 [13],<1
same,viability at 0.03 µM,Calu-1,77%
same,Activity,[14],Active
same,viability at 0.03 µM,NCI-H23 [15],0.34%
same,Activity,[16],100%
same,Activity,[17],Active
same,fold change (FC),NCI-H358 [18],~6
same,Activity,MIA PaCa-2 [19],19.9%
same,Activity,MIA PaCa-2 [20],Active
same,Activity,[21],100%
same,viability at 0.03 µM,NCI-H358 [22],0.29%
same,Activity,[23],50%
same,viability at 0.03 µM,NCI-H23 [24],0.33%
same,viability at 0.03 µM,MIA PaCa-2 [25],0.28%
same,Cmax,[26],6460 ng/mL
same,Activity,NCI-H358 [27],6.13%
same,Activity,[28],Non-Toxic
